From patent US20250313563A1, “GLYCOGEN SYNTHASE KINASE 3 INHIBITORS AND USES THEREOF” (The Broad Institute, Inc., priority 2022, published 2025)
Read-outs that look alike come from different tables or passages of the source.

Experiments:
[1] = molecular target: GSK3α (GST-full length GSK3α) (Homo sapiens (Human), UniProt P49840); experiment: GSK3α TR-FRET kinase assay; format: biochemical
Procedure, shortened: (§1)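 Full-length GST-tagged human enzyme (1 nM) is exposed to test compound for 30 min before substrates are added. Phosphorylation of a primed biotinylated glycogen synthase peptide proceeds 100 min at room temperature at low ATP (4 μM α; 2 μM β) or high ATP (1 mM). Product is quantified by TR-FRET.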

[2] = molecular target: GSK3b (GST-full length GSK3b) (Homo sapiens (Human), UniProt P49841); experiment: GSK3b TR-FRET kinase assay; format: biochemical
Procedure, shortened: as §1

[3] = 1 nM GSK3α, 4 μM ATP, 30 minute preincubation, geometric mean, read-out: GSK3-A TR-FRET BIOCHEMICAL (TR-FRET), GMean, IC50
[4] = read-out: GSK3-A (TR-FRET 1 mM ATP), GMean, IC50, 1 mM ATP, geometric mean
[5] = 1 nM GSK3b, 2 μM ATP, 30 minute preincubation, geometric mean, read-out: GSK3-B TR-FRET BIOCHEMICAL (TR-FRET), GMean, IC50
[6] = read-out: GSK3-B (TR-FRET 1 mM ATP), GMean, IC50, 1 mM ATP, geometric mean
[7] = 1 nM GSK3α, 4 μM ATP, 30 minute preincubation, read-out: GSK3-A TR-FRET BIOCHEMICAL (TR-FRET), IC50
[8] = 1 nM GSK3b, 2 μM ATP, 30 minute preincubation, read-out: GSK3-B TR-FRET BIOCHEMICAL (TR-FRET), IC50
[9] = 1 nM GSK3α, 4 μM ATP, 30 minute preincubation, Table 16, read-out: GSK3-A TR-FRET BIOCHEMICAL (TR-FRET)
[10] = 1 nM GSK3b, 2 μM ATP, 30 minute preincubation, Table 16, read-out: GSK3-B TR-FRET BIOCHEMICAL (TR-FRET)
[11] = 1 nM GSK3α, 4 μM ATP, 30 minute preincubation, Table 16, read-out: GSK3-A TR-FRET BIOCHEMICAL (TR-FRET), IC50
[12] = 1 nM GSK3b, 2 μM ATP, 30 minute preincubation, Table 16, read-out: GSK3-B TR-FRET BIOCHEMICAL (TR-FRET), IC50

GSK3α (GST-full length GSK3α), sequence (P49840 whole entry): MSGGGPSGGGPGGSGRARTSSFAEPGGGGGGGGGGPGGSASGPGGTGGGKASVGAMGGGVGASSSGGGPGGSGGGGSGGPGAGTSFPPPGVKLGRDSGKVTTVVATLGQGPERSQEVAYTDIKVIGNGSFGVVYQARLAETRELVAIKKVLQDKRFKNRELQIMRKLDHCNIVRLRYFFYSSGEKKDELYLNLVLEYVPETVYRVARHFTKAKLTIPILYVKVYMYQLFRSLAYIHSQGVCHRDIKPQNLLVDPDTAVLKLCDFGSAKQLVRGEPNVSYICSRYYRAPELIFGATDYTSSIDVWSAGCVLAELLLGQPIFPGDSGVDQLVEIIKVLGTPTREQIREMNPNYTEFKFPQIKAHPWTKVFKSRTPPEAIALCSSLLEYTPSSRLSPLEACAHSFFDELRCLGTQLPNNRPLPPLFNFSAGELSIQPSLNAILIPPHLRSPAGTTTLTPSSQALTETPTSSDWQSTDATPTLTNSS
GSK3b (GST-full length GSK3b), sequence (P49841 whole entry): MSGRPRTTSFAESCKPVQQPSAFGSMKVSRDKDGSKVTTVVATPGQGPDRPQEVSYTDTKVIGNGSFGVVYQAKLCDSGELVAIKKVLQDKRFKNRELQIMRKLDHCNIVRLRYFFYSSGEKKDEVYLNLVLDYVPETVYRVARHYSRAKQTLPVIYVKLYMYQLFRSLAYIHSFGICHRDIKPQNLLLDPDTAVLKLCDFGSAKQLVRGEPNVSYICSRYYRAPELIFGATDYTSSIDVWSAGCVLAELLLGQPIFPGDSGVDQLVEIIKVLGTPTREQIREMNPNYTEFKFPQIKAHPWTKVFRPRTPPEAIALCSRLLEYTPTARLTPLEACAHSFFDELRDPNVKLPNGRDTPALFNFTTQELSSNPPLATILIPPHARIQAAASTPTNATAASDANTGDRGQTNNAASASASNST

IC50 [1, 3] [nM] | IC50 [2, 5] [nM] | SMILES | also measured
≤ 100 | 100 to 1000 | CCC1(c2cccc(C3CCOCC3)c2)C2=C(CC(C)(C)CC2=O)Nc2n[nH]cc21 (stereo not drawn) [Compound 819638] | IC50 [1, 4]: 100 to 1000 nM; IC50 [2, 6]: > 5000 nM
 |  | CCC1(c2cccc(C(F)(F)F)c2)C2=C(CC(C)(C)N(C)C2=O)Nc2n[nH]cc21 (stereo not drawn) [Compound 823130] | IC50 [1, 7]: ≤ 100 nM; IC50 [2, 8]: 100 to 1000 nM
≤ 100 | 100 to 1000 | CCC1(c2cccc(-c3cnn(C)c3)c2)C2=C(CC(C)CC2=O)Nc2n[nH]cc21 (stereo not drawn) [Compound 823720] | 
≤ 100 | 100 to 1000 | CCC1(c2cccc(-c3cnn(C)c3)c2)C2=C(CC(C)CC2=O)Nc2n[nH]cc21 (stereo not drawn) [Compound 823721] | IC50 [1, 4]: 100 to 1000 nM; IC50 [2, 6]: > 5000 nM
> 5000 | > 5000 | CCC1(c2cccc(-c3cnn(C)c3)c2)C2=C(CC(C)CC2=O)Nc2n[nH]cc21 (stereo not drawn) [Compound 823726] | 
 |  | CCC1(c2cccc(C(F)(F)F)c2)C2=C(CCN(C(C)C)C2=O)Nc2n[nH]cc21 (stereo not drawn) [Compound 825755] | IC50 [1, 7]: ≤ 100 nM; IC50 [2, 8]: 100 to 1000 nM
 |  | CC1(C)CC(=O)C2=C(C1)Nc1n[nH]cc1C21CCOCC1 [Compound 826648, 7′,7′-dimethyl-2,2′,3,5,6,7′,8′,9′-octahydrospiro[pyran-4,4′-pyrazolo[3,4-b]quinolin]-5′ (6′H)-one] | IC50 [1, 9]: 100 to 1000 nM; IC50 [2, 10]: 100 to 1000 nM
 |  | CC(=O)N1CCC2(CC1)C1=C(CC(C)(C)CC1=O)Nc1n[nH]cc12 [Compound 826649] | IC50 [1, 9]: 100 to 1000 nM; IC50 [2, 10]: 1000 to 5000 nM
 |  | CC1(C)CC(=O)C2=C(C1)Nc1n[nH]cc1C21CCCCC1 [Compound 826650] | IC50 [1, 9]: ≤ 100 nM; IC50 [2, 10]: ≤ 100 nM
 |  | CC1(C)CC(=O)C2=C(C1)Nc1n[nH]cc1C21CCOC1 (stereo not drawn) [Compound 826713] | IC50 [1, 9]: 100 to 1000 nM; IC50 [2, 10]: 100 to 1000 nM
 |  | CN1CCC2(CC1)C1=C(CC(C)(C)CC1=O)Nc1n[nH]cc12 [Compound 826714] | IC50 [1, 11]: > 5000 nM; IC50 [2, 12]: > 5000 nM
≤ 100 | ≤ 100 | CCC1(c2cccc(Br)c2)C2=C(CC(C)CC2=O)Nc2n[nH]c(C(F)(F)F)c21 (stereo not drawn) [Compound 826715] | 
100 to 1000 | > 5000 | CCC1(c2cccc(C(F)F)c2)C2=C(CC(C)(C)CC2=O)Nc2n[nH]cc21 (stereo not drawn) [Compound 826716] | 
≤ 100 | ≤ 100 | CC[C@@]1(c2cccc(C(F)F)c2)C2=C(CC(C)(C)CC2=O)Nc2n[nH]cc21 [Compound 826717] | IC50 [1, 4]: 100 to 1000 nM; IC50 [2, 6]: 1000 to 5000 nM
 |  | CCC1(c2cccc(S(C)(=O)=O)c2)C2=C(CC(C)(C)CC2=O)Nc2n[nH]cc21 (stereo not drawn) [Compound 826718] | IC50 [1, 4]: ≤ 100 nM; IC50 [2, 6]: 100 to 1000 nM
1000 to 5000 | > 5000 | CC[C@]1(c2cccc(S(C)(=O)=O)c2)C2=C(CC(C)(C)CC2=O)Nc2n[nH]cc21 [Compound 826719] | 
 |  | CC(=O)N1CCC2(C1)C1=C(CC(C)(C)CC1=O)Nc1n[nH]cc12 (stereo not drawn) [Compound 826763] | IC50 [1, 11]: 100 to 1000 nM; IC50 [2, 12]: 1000 to 5000 nM
 |  | CC1CCCC12C1=C(CC(C)(C)CC1=O)Nc1n[nH]cc12 (stereo not drawn) [Compound 826765] | IC50 [1, 9]: 100 to 1000 nM; IC50 [2, 10]: 1000 to 5000 nM
100 to 1000 | 100 to 1000 | CC[C@]1(c2ccccc2)C2=C(CC(C)(C)[C@@H](F)C2=O)Nc2n[nH]cc21 [Compound 826766] | 
> 5000 | > 5000 | CC[C@]1(c2ccccc2)C2=C(CC(C)(C)[C@H](F)C2=O)Nc2n[nH]cc21 [Compound 826767] | 
≤ 100 | 100 to 1000 | CC[C@@]1(c2ccccc2)C2=C(CC(C)(C)[C@@H](F)C2=O)Nc2n[nH]cc21 [Compound 826768] | 
> 5000 | > 5000 | CC[C@@]1(c2ccccc2)C2=C(CC(C)(C)[C@H](F)C2=O)Nc2n[nH]cc21 [Compound 826769] | 
 |  | CCC1(c2cccc(C(F)(F)F)c2)C2=C(CC(C)(C)N(C)C2=O)Nc2n[nH]cc21 (stereo not drawn) [Compound 826790] | IC50 [1, 7]: ≤ 100 nM; IC50 [1, 4]: 100 to 1000 nM; IC50 [2, 8]: ≤ 100 nM; IC50 [2, 6]: 1000 to 5000 nM
 |  | CCC1(c2cccc(C(F)(F)F)c2)C2=C(CC(C)(C)N(C)C2=O)Nc2n[nH]cc21 (stereo not drawn) [Compound 826791] | IC50 [1, 7]: 100 to 1000 nM; IC50 [2, 8]: 1000 to 5000 nM
100 to 1000 | 100 to 1000 | CCC1(c2cccc(Br)c2)C2=C(CC(C)CC2=O)Nc2n[nH]c(C(F)(F)F)c21 (stereo not drawn) [Compound 828849] | 
100 to 1000 | 1000 to 5000 | CCC1(c2ccccc2)C2=C(CCC(C)(C)C2=O)Nc2n[nH]cc21 (stereo not drawn) [Compound 835310] | 

IC50 [1, 3] [nM] | IC50 [2, 5] [nM] | SMILES | also measured
> 5000 | > 5000 | CCC1(c2cccc(Br)c2)C2=C(CC(C)(C)C(F)C2=O)Nc2n[nH]cc21 (stereo not drawn) [Compound 835312] | 
> 5000 | > 5000 | CC[C@]1(c2cccc(Br)c2)C2=C(CC(C)(C)[C@@H](F)C2=O)Nc2n[nH]cc21 [Compound 835313] | 
≤ 100 | 100 to 1000 | CCC1(c2cccc(Br)c2)C2=C(CC(C)(C)C(F)C2=O)Nc2n[nH]cc21 (stereo not drawn) [Compound 835314] | 
≤ 100 | ≤ 100 | CCC1(c2cccc(Br)c2)C2=C(CC(C)(C)C(F)C2=O)Nc2n[nH]cc21 (stereo not drawn) [Compound 835315] | IC50 [1, 4]: 100 to 1000 nM; IC50 [2, 6]: 1000 to 5000 nM
≤ 100 | 100 to 1000 | CCC1(c2cccc(-c3ccnc(C)c3)c2)C2=C(CC(C)(C)CC2=O)Nc2n[nH]cc21 (stereo not drawn) [Compound 840857] | 
 |  | CCC1(COC)C2=C(CC(C)(C)CC2=O)Nc2n[nH]cc21 (stereo not drawn) [Compound 841866] | IC50 [1, 11]: > 5000 nM; IC50 [2, 12]: > 5000 nM
 |  | CN1CCC2(C1)C1=C(CC(C)(C)CC1=O)Nc1n[nH]cc12 (stereo not drawn) [Compound 841867] | IC50 [1, 11]: > 5000 nM; IC50 [2, 12]: > 5000 nM
100 to 1000 | 1000 to 5000 | CCC1(c2cccc(N(C)c3ccncc3)c2)C2=C(CC(C)(C)CC2=O)Nc2n[nH]cc21 (stereo not drawn) [Compound 853910] | 
≤ 100 | 100 to 1000 | CCC1(c2cccc(-n3ccnc3)c2)C2=C(CC(C)(C)CC2=O)Nc2n[nH]cc21 (stereo not drawn) [Compound 854926] | 
> 5000 | > 5000 | CC1(C)CC(=O)C2=C(C1)Nc1n[nH]c(CCC(F)(F)F)c1C2(C)c1ccccc1 (stereo not drawn) [Compound 856948] | 
 |  | CC[C@@]1(c2cccc(C(F)(F)F)c2)C2=C(CCN(C(C)C)C2=O)Nc2n[nH]cc21 [Compound 857336] | IC50 [1, 7]: ≤ 100 nM; IC50 [2, 8]: 100 to 1000 nM
 |  | CC[C@]1(c2cccc(C(F)(F)F)c2)C2=C(CCN(C(C)C)C2=O)Nc2n[nH]cc21 [Compound 857362] | IC50 [1, 7]: > 5000 nM; IC50 [2, 8]: > 5000 nM
 |  | CCC1(c2ccccc2)C2=C(Nc3n[nH]cc31)C1CCC1C2=O (stereo not drawn) [Compound 861716] | IC50 [1, 11]: 1000 to 5000 nM; IC50 [2, 12]: > 5000 nM
 |  | CCC1(c2ccccc2)C2=C(CSC(C)(C)C2=O)Nc2n[nH]cc21 (stereo not drawn) [Compound 862028] | IC50 [1, 7]: 100 to 1000 nM; IC50 [2, 8]: 1000 to 5000 nM
1000 to 5000 | > 5000 | CCC1(c2cccc(-c3ccnc(C)c3)c2)C2=C(CC(C)(C)CC2=O)Nc2n[nH]cc21 (stereo not drawn) [Compound 865170] | 
≤ 100 | 100 to 1000 | CCC1(c2cccc(N3CCCC3=O)c2)C2=C(CC(C)(C)CC2=O)Nc2n[nH]cc21 (stereo not drawn) [Compound 865171] | 
 |  | CC1(C)CC(=O)C2=C(C1)Nc1n[nH]cc1C21CCC(C(F)(F)F)CC1 (stereo not drawn) [Compound 865193] | IC50 [1, 9]: ≤ 100 nM; IC50 ([1]; GSK3-A (TR-FRET 1 mM ATP), GMean, IC50, 1 mM ATP, geometric mean): 100 to 1000 nM; IC50 [2, 10]: ≤ 100 nM; IC50 ([2]; GSK3-B (TR-FRET 1 mM ATP), GMean, IC50, 1 mM ATP, geometric mean): 1000 to 5000 nM
100 to 1000 | 1000 to 5000 | CCC1(c2cccc(CN(C)C(C)=O)c2)C2=C(CC(C)(C)CC2=O)Nc2n[nH]cc21 (stereo not drawn) [Compound 865194] | 
100 to 1000 | > 5000 | CCC1(c2cccc(CN(C)C(=O)C(C)C)c2)C2=C(CC(C)(C)CC2=O)Nc2n[nH]cc21 (stereo not drawn) [Compound 865195] | 
100 to 1000 | > 5000 | CCC1(c2cccc(CN(C)C(=O)COC)c2)C2=C(CC(C)(C)CC2=O)Nc2n[nH]cc21 (stereo not drawn) [Compound 865196] | 
100 to 1000 | 1000 to 5000 | CC[C@]1(c2ccccc2)C2=C(Nc3n[nH]cc31)[C@@H](C)C[C@H](C)C2=O [Compound 865198] | 
1000 to 5000 | > 5000 | CC[C@@]1(c2ccccc2)C2=C(Nc3n[nH]cc31)[C@H](C)C[C@@H](C)C2=O [Compound 865199] | 
≤ 100 | 100 to 1000 | CC[C@]1(c2ccccc2)C2=C(Nc3n[nH]cc31)[C@H](C)C[C@@H](C)C2=O [Compound 865201] | 
> 5000 | > 5000 | CC[C@@]1(c2ccccc2)C2=C(Nc3n[nH]cc31)[C@@H](C)C[C@H](C)C2=O [Compound 865202] | 
 |  | CCC1(c2cccc(C(F)(F)F)c2)C2=C(CCNC2=O)Nc2n[nH]cc21 (stereo not drawn) [Compound 870263] | IC50 [1, 7]: 100 to 1000 nM; IC50 [2, 8]: > 5000 nM
